{"source": "patent US3959311A", "about": "“Oxotremorine antagonists” (priority 1967, dated 1976)", "key": {"[1]": {"tested_on": "oxotremorine-induced tremor", "conditions": "cited from earlier work"}, "[2]": {"tested_on": "oxotremorine tremor response", "assay": "Oxotremorine antagonism: affinity constant from shift of median effective tremor dose of oxotremorine (Dixon up-and-down method)", "format": "in vivo, mice", "conditions": "AL-301 set equal to 1.0", "description": "It was tested in the following manner:\nFour or more groups, each containing six female mice weighing 22 to 26 grams, were selected. To establish a control, each member of the first group was dosed in sequence with oxotremorine in the absence of any test compound.\nIn the Dixon method the first animal is treated at an arbitrarily selected level and the presence or absence of tremor response is noted. An increased or decreased dosage is then selected according to the schedule specified by the Dixon procedure for the second animal which would tend to produce a change in the tremor response.\nFor each test group, the increased median effective dose of oxotremorine was determined in the same manner.\nTo compare the potency of the test compound the affinity constant was obtained from the data. The affinity constant is that concentration of test compound which when administered blocks the oxotremorine response so that twice the concentration of oxotremorine is necessary to evoke the same response as was produced in the absence of the test compound."}, "diameter of the pupil": {"tested_on": "diameter of the pupil", "assay": "animal or person", "format": "in vivo, mice", "conditions": "Mus musculus", "from_the_text": "(§1) This \"tremorolytic\" dose is designated as T. As a standard for the peripheral effect the dose of the compound in mg/kg, which doubles the diameter of the pupil, is given. This \"mydriatic\" dose is designated as M. The ratio between M and T will constitute a standard for specific central effect of the substance. A higher value for M/T corresponds to a higher specificity."}, "[3]": {"tested_on": "tremoromimetic effects of oxotremorine", "format": "in vivo, mice", "from_the_text": "as §1"}, "[4]": {"conditions": "dose which doubles the diameter of the pupil, mice, read-out: Mydriatic Dose"}, "[5]": {"conditions": "mydriatic dose / tremorolytic dose, higher value = higher specificity"}}, "note": "Where two headings read alike, the source gives them in different places.", "data": [{"smiles": "O=C1CCCN1CC#CCN1CCCC1", "note": "[oxotremorine, N-(4-pyrrolidino-2-butynyl)-pyrrolidin-2-one]", "values": [{"measurement": "effects of oxotremorine", "setting": "[1]; immediately after injection by intravenous routes, several species of laboratory animals", "result": "induces violent generalized tremors, spasticity, hypokinesia and parasympathomimetic effects"}]}, {"smiles": "OC(CCN1CCCCC1)(c1ccccc1)C1CCCCC1", "note": "(stereo not drawn) [Artane, α-cyclohexyl-α-phenyl-1-piperidine-propanol, reference compound]", "values": [{"measurement": "Ratio of affinity constant dosages (relative potency)", "setting": "[2]", "result": 1.8}]}, {"smiles": "OC(CCN1CCCCC1)(c1ccccc1)C1CCCCC1", "note": "(stereo not shown) [benzhexol, reference compound]", "values": [{"measurement": "ED (doubling of pupil diameter)", "setting": "diameter of the pupil; [4]", "result": 1.15, "unit": "mg/kg"}, {"measurement": "M/T ratio (specific central effect)", "setting": "[3]; mouse, in vivo", "result": 0.21}, {"measurement": "Tremorolytic Dose (T)", "setting": "[3]; mouse, in vivo, iv", "result": 5.5}]}, {"smiles": "CCN(CC)CCOC(=O)C1(c2ccccc2)CCCC1", "note": "[caramiphen, 1-phenylcyclopentanecarboxylic acid 2-diethylaminoethyl ester]", "values": [{"measurement": "side effect: antagonism of peripheral cholinergic effects of oxotremorine", "setting": "[1]; in vivo", "result": "antagonizing the peripheral cholinergic effects of oxotremorine"}, {"measurement": "antagonism of oxotremorine-induced tremor", "setting": "[1]; in words", "result": "antagonize the oxotremorine-induced tremor"}]}, {"smiles": "CC(C#CCN1CCCCC1)N1CCCC1=O", "note": "(stereo not shown) [N-(1-methyl-4-piperidino-2-butynyl)-pyrrolidin-2-one]", "values": [{"measurement": "Ratio of affinity constant dosages (relative potency)", "setting": "[2]", "result": 8.5}]}, {"smiles": "CC(C#CCN1CCCCCC1)N1CCCC1=O", "note": "(stereo not shown) [N-(1-methyl-4-perhydroazepino-2-butynyl)-pyrrolidin-2-one]", "values": [{"measurement": "Ratio of affinity constant dosages (relative potency)", "setting": "[2]", "result": 9.0}, {"measurement": "ED (doubling of pupil diameter)", "setting": "diameter of the pupil; [4]", "result": 2, "unit": "mg/kg"}, {"measurement": "Tremorolytic Dose (T)", "setting": "[3]; mouse, in vivo, iv", "result": 0.32, "unit": "mg/kg"}, {"measurement": "M/T ratio (specific central effect)", "setting": "[3]; [5]", "result": 6.25}]}, {"smiles": "CN1[C@@H]2CC[C@H]1C[C@@H](OC(=O)C(CO)c1ccccc1)C2", "note": "(stereo partly shown) [atropine]", "values": [{"measurement": "antagonism of oxotremorine-induced tremor", "setting": "[1]; in words", "result": "antagonize the oxotremorine-induced tremor"}, {"measurement": "side effect: antagonism of peripheral cholinergic effects of oxotremorine", "setting": "[1]; in words", "result": "antagonizing the peripheral cholinergic effects of oxotremorine"}]}, {"smiles": "CC(C#CCN1CCCC1)N1CCCC1=O", "note": "(stereo not shown) [N-(1-methyl-4-pyrrolidino-2-butynyl)-pyrrolidin-2-one]", "values": [{"measurement": "Ratio of affinity constant dosages (relative potency)", "setting": "[2]", "result": 17.0}, {"measurement": "Ratio of affinity constant dosages (relative potency)", "setting": "[2]; listed as n = 4", "result": 17}, {"measurement": "ED (doubling of pupil diameter)", "setting": "diameter of the pupil; read-out: Mydriatic Dose (M)", "result": 0.62, "unit": "mg/kg"}, {"measurement": "Tremorolytic Dose (T)", "setting": "[3]; dose which inhibits the effect of 150 μg/kg of oxotremorine i.v., mice", "result": 0.19, "unit": "mg/kg"}, {"measurement": "M/T ratio (specific central effect)", "setting": "[3]; [5]", "result": 3.26}]}]}
